Data on eight molecules can be found in patent US20240391923A1, “METHIONINE ADENOSYLTRANSFERASE 2A INHIBITOR FOR TREATING MTAP DELETION-TYPE CANCER” (SUZHOU GENHOUSE BIO CO., LTD., priority 2022, published 2024).

Structures are written as SMILES.

Series [1] deals with Human colorectal adenocarcinoma cells HCT116-MTAP-KO. The series is described as follows: Mouse xenograft tumor pharmacodynamic model, HCT116-MTAP-KO. Type of series: in vivo. The protocol:
In this example, the in vivo efficacy of the compound in a mouse xenograft tumor model after intragastric (PO) administration was tested.
Human colorectal adenocarcinoma cells HCT116-MTAP-KO were cultured in monolayer in vitro under the condition of McCoy's 5A medium containing 10% fetal bovine serum and 1% penicillin and streptomycin, and the culture was carried out at 37° C. with 5% CO2. The cells were digested with trypsin three times a week for passaging. When the saturation degree of the cells was 80-90%, the cells were collected, counted and inoculated. 0.1 mL (5×10^6 cells) of HCT116-MTAP-KO cells were subcutaneously inoculated on the right back of each mouse. On day 16 after inoculation of the cells, the mean tumor volume reached 154 mm^3. The mice were randomly grouped for administration and intragastrically dosed once daily. Changes in body weight and tumor volume were recorded. After a certain number of days of administration, the experiment was ended. Tumor volume changes and mouse body weight changes were counted and analyzed. AG270 (CAS: 2201056-66-6) was the positive control compound.

Series [2] is described as follows: Metabolic stability test in hepatocytes, rat. Type of series: in vitro ADME. The note with it: hepatocytes (suspension), Table 5: metabolic stability in hepatocytes, up to 90 min, read-out: Metabolic half-life in rat liver microsome (T½, min). The protocol: This experimental example was used to test the metabolic stability of the compounds in hepatocytes.
A suspension of hepatocytes was prepared at 0.5×10^6/mL with a pre-heated medium, then 198 μL of the pre-heated cell suspension was added to a 96-well plate. To each well of the 96-well plate, 2 μL of the test compound was added so that the final concentration was 1 μM, and 2 replicate wells were set. For the T=0 min sample, the compound was mixed well with the cells for 1 min, then […] was immediately added to 125 μL of a stop solution (an acetonitrile solution containing 200 ng/mL tolbutamide and 200 ng/mL labetalol) under an ice bath and mixed well. At the same time, all the plates were placed in an incubator at 37° C. with 5% CO2, with the shaker set at 600 rpm. The sample was mixed well at 15, 30, 60, and 90 min of incubation, respectively, and 25 μL of the sample was added to 125 μL of a stop solution (an acetonitrile solution containing 200 ng/mL tolbutamide and 200 ng/mL labetalol) under an ice bath, mixed well, and shaken at 500 rpm for 10 min. Subsequently, the plate was centrifuged for 20 min at 3220×g at 4° C. After the centrifugation was completed, 80 μL of the supernatant from each well was transferred to another 96-well plate containing 240 μL of ultrapure water. Subsequently, analysis was carried out using LC-MS/MS, and intrinsic clearance (CLint) and half-life (T½) were calculated.
(Microsomes from liver hold many membrane-bound enzymes, among them those of drug oxidation.)

A further series concerns the target T1, PXR (Homo sapiens, UniProt O75469).
T1 construct: host or cells: DPX2 cells
T1 sequence (O75469 1-434): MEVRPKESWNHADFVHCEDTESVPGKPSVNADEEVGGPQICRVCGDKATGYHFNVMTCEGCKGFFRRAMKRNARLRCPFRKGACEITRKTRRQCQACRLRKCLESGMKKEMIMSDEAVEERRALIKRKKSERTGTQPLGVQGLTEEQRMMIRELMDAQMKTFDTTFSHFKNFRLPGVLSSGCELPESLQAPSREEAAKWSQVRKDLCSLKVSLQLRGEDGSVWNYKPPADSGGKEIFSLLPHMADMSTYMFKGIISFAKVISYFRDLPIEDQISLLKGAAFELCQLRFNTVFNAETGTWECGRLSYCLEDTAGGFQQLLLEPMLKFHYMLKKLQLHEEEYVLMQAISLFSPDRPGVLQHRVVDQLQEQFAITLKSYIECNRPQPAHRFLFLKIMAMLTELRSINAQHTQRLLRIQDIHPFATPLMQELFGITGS
Kind of series: PXR activation test in stably transfected DPX2 cells. Type of series: cell-based. The following applies: for activation activity on PXR at 30 μM (in words): summary of Table 10; for PXR activation fold (10 μM) / PXR activation fold (30 μM): DPX2 cells, 48 h. Here is the method:
In this example, the compound was tested for PXR activation.
100 μL of stably transfected DPX2 cells were seeded per well of a 96-well cell culture plate (4.5×10^5 cells/mL in Puracyp medium), followed by placing the 96-well plate in a 37° C. incubator. After 24 h, the 96-well plate was taken out from the incubator, the medium was replaced with 100 μL of the test compound (at a final concentration of 10 μM and 30 μM), positive control compound rifampicin (at a final concentration of 10 μM), and the DMSO treatment group (at a final concentration of 0.1%), and 3 replicate wells were set. The test plate was placed back into the incubator. After 24 h, the medium was replaced with the freshly prepared test compound and rifampicin solution, and the test plate was again placed back into the incubator. After the compound was treated for 48 h, the test plate was taken out from the incubator. The medium in the wells was discarded, the plate was washed twice with PBS, 50 μL of medium containing 1×CellTiter-Fluor™ Cell Viability Assay reagent was added, and the mixture was incubated at 37° C. for 30 min. The test plate was taken out and equilibrated to room temperature, and the fluorescence signal under the conditions of 400 nm excitation light/505 nm emission light was detected by a microplate reader.
Subsequently, 50 μL of medium containing ONE-Glo Assay reagent was added to each well, and the plate was shaken, mixed well, and incubated at room temperature for 5 min. Chemiluminescence was detected by a microplate reader. The data was analyzed to evaluate the PXR activation of the test compound.

On to `Cn1cc2c(n1)c(=O)n(-c1cccnc1C1CC1)c1cc(Cl)c(F)cc21` [Compound B340], for which the “Tumor growth inhibition percentage (TGI)” value in series [1] (PO 3 mg/kg once a day, 22 days of administration) is “once a day TGI = 48.04%”; in series [1] (PO 10 mg/kg once a day, 22 days of administration) it was “once a day TGI = 61.99%”; in series [1] (PO 30 mg/kg once a day, 22 days of administration), “once a day TGI = 72.55%”. Besides, the half-life at 1 μM in series [2] was found to be 150 min.
Consider `Cn1cc2c(n1)c(=O)n(-c1cccc3[nH]ncc13)c1cc(Cl)c(F)cc21` [Compound B257], for which, at PXR, the “activation activity on PXR at 30 μM (in words)” value is listed as “very weak”, the “PXR activation fold (10 μM)” value was determined as 3.37 fold and the “PXR activation fold (30 μM)” value came out at 7.87 fold. Moreover, the “Tumor growth inhibition percentage (TGI)” value in series [1] (PO 1 mg/kg once a day, 15 days of administration) was “once a day TGI = 77.29%”. Moreover, the “Tumor growth inhibition percentage (TGI)” value in series [1] (PO 1 mg/kg once a day, 28 days of administration) is on record as “once a day TGI = 51.34%”. Further, the “Tumor growth inhibition percentage (TGI)” value in series [1] (PO 3 mg/kg once a day, 28 days of administration) was “once a day TGI = 87.78%”.
For `Cn1cc2c(n1)c(=O)n(-c1cccc3[nH]ncc13)c1nc(C(F)(F)F)ccc21` [Compound B181], at PXR, the “activation activity on PXR at 30 μM (in words)” value is reported as “very weak”, the “PXR activation fold (10 μM)” value is listed as 3.63 fold and the “PXR activation fold (30 μM)” value amounted to 3.77 fold.
For `Cc1ncccc1-n1c(=O)c2nn(C)cc2c2ccc(C(F)(F)F)nc21` (single isomer, unassigned) [Compound B180], the half-life at 1 μM in series [2] came out at 51.1 min.
Turning to `Cn1cc2c(n1)c(=O)n(-c1cccc3[nH]ncc13)c1cc(Cl)ccc21` [Compound B60], at PXR, the “PXR activation fold (10 μM)” value was 7.06 fold and the “PXR activation fold (30 μM)” value is given as 21.71 fold.
The corresponding values for `O=c1c2n[nH]cc2c2ccc(C(F)(F)F)nc2n1-c1cccnc1` [Compound B178] are 7.47 fold and 34.49 fold.
`Cn1cc2c(n1)c(=O)n(-c1cccc3[nH]ncc13)c1cc(Cl)c(C#N)cc21` [Compound B258]: the “Tumor growth inhibition percentage (TGI)” value is “once a day TGI = 52.48%” in series [1] (PO 3 mg/kg once a day, 15 days of administration); “once a day TGI = 72.58%” in series [1] (PO 10 mg/kg once a day, 15 days of administration); “once a day TGI = 81.2%” in series [1] (PO 30 mg/kg once a day, 15 days of administration); “once a day TGI = 83.75%” in series [1] (PO 100 mg/kg once a day, 15 days of administration).
With `Cn1cc2c(n1)c(=O)n(-c1cccc(O)c1)c1nc(C(F)(F)F)ccc21` [Compound B148], in series [2], the half-life at 1 μM turned out to be 50.9 min.

What is called half-life is the time in which the quantity being followed falls by half.
